Like-named read-outs stand apart in the source and are kept apart here.
Assays:
[1] = system: maltose dehydrogenase (acceptor); assay: Hydrogen acceptor (coenzyme) of maltose dehydrogenase (acceptor) in oxidation of maltose; assay type: biochemical, Staphylococcus sp. B-0875; parameters: Relative Activity (%): concentration or dose not given beside the values; conditions: for ability to act as hydrogen acceptor: oxidative reaction of maltose; for Relative Activity (%): as hydrogen acceptor, Reaction pH 7.5, substrate maltose
Experimental: (§1) The above reaction mixture (1.0 ml) in a small test tube is pre-incubated at 37° C. Enzyme solution (10 μl) is added thereto and incubated at 37° C. for 10 min. The reaction is stopped by adding 0.1N HCl (2.0 ml) and the optical density at 550 nm (As) is measured. Distilled water (10 μl) is added as a control and the amount measured at 550 nm (Ab).
Hydrogen acceptor (coenzyme) of maltose dehydrogenase (acceptor) in the oxidative reaction (dehydrogenation) of maltose is measured according to the assay method. Maltose dehydrogenase (acceptor) of the present invention requires no NAD or NADP as a coenzyme. A decrease in soluble oxygen is observed at least whwn PMS, 1-methoxy-phenazine methosulfate (MPMS) or meldola blue is used as a hydrogen acceptor.

[2] = system: serum amylase; assay: Serum amylase assay with different hydrogen acceptors (Example 12); assay type: biochemical; conditions: 0.002% hydrogen acceptor; human serum 20 μl; 37° C.; absorbancy at 550 nm
Experimental: 40 mM phosphate buffer pH 7.0
maltose dehydrogenase (acceptor) (16.7 U/ml)
Human serun (20 μl) was added to the reaction mixture hereinabove (the hydrogen acceptor is shown in Table 6), and the material was incubated at 37° C. for 5 mins. Reaction mixture II (0.4 ml) was added thereto and the material was incubated at 37° C. Changes in absorbancy at 550 nm were measured. The results are shown in Table 6, from which it will be seen that serum amylase can be measured whatever the hydrogen acceptor.

[3] = system: maltose dehydrogenase (acceptor); assay type: biochemical, Staphylococcus sp. B-0875
Experimental: as §1
Metallic ions, EDTA or KCN shown in Table 4 is added to the reaction mixture as in the assay method, and the effect thereof is measured. The results are shown in […]

[4] = system: maltose dehydrogenase (acceptor); assay: Effect of surface-active agents on enzyme activity; assay type: biochemical, Staphylococcus sp. B-0875; conditions: Concentration 0.1%, in place of 0.2% Triton X-100; no addition = 100
Experimental: as §1
Surface active agents as in Table 5 are added one at a time to aliquots of the reaction mixture as in the assay method, in place of 0.2% Triton X-100, and the enzyme activity is measured.

[5] = system: maltose dehydrogenase (acceptor); assay: Substrate specificity of maltose dehydrogenase (acceptor), PMS/NTB assay at 550 nm; assay type: biochemical, Staphylococcus sp. B-0875; conditions: substrate each 0.1M, 0.1 ml, in place of maltose; 37° C., 10 min
Experimental: 20 mM phosphate buffer (pH 7.5)
0.1% bovine serum albumin
0.025% nitrotetrazolium blue (NTB)
0.001% phenazine methosulfate (PMS: hydrogen acceptor)
as §1
One unit is defined by the amount of enzyme which oxidizes (dehydrogenates)1 μmole of maltose in one minute and enzyme activity is calculated by the following equation: [formula]
Maltose in the above assay method is replaced by the substrates in Table 2 (each 0.1M, 0.1 ml) and assayed according to the above assay method.

[6] = system: maltose dehydrogenase (acceptor); assay: Km value, substrate concentration-reaction rate relation; assay type: biochemical, Staphylococcus sp. B-0875; conditions: approximate, calculated according to FIG. 5; no linear Lineweaver-Burk plot
Source text: Under the experimental conditions, Vmax cannot be determined and no linear Lineweaver-Burk plot can be obtained.

[7] = 1.0 mM additive in reaction mixture, no addition = 100

Compound: CC(=O)Nc1cccc2c1nc1ccccc1[n+]2C [1-acetamide-phenazine methosulfate]
- ability to act as hydrogen acceptor [1]: can also be a hydrogen acceptor
- Relative Amylase Activity [2]: 103%

Compound: O=C1C(Cl)=CC(=Nc2ccc(O)cc2)C=C1Cl [2,6-dichlorophenolindophenol]
- ability to act as hydrogen acceptor [1]: can also be a hydrogen acceptor

Compound: [Ba+2].[Cl-].[Cl-] [BaCl2]
- Relative Activity (%) [3, 7]: 61.2%

Compound: [Ca+2].[Cl-].[Cl-] [CaCl2]
- Relative Activity (%) [3, 7]: 101%

Compound: CCCCCCCCCCCCCCCC[N+](C)(C)C.[Cl-] [Cetyl trimethylammonium chloride]
- Relative Activity (%) [4]: 94%

Compound: [Cl-].[Cl-].[Co+2] [CoCl2]
- Relative Activity (%) [3, 7]: 17.9%

Compound: [Cl][Cu][Cl] [CuCl2]
- Relative Activity (%) [3, 7]: 0%

Compound: O=C(O)CN(CCN(CC(=O)O)CC(=O)O)CC(=O)O [EDTA]
- Relative Activity (%) [3]: 73%

Compound: [Cl-].[Li+] [LiCl]
- Relative Activity (%) [3, 7]: 95%

Compound: COc1cccc2c1nc1ccccc1[n+]2C [MPMS, 1-methoxy-phenazine methosulfate]
- Relative Activity (%) [1]: 30%
- Relative Amylase Activity [2]: 102%

Compound: [Cl-].[Cl-].[Mg+2] [MgCl2]
- Relative Activity (%) [3, 7]: 106%

Compound: [Cl][Mn][Cl] [MnCl2]
- Relative Activity (%) [3, 7]: 13.4%

Compound: NC(=O)c1ccc[n+]([C@@H]2O[C@H](COP(=O)([O-])OP(=O)(O)OC[C@H]3O[C@@H](n4cnc5c(N)ncnc54)[C@H](O)[C@@H]3O)[C@@H](O)[C@H]2O)c1 [NAD, nicotine adenine dinucleotide]
- Relative Activity (%) [1]: 0%

Compound: NC(=O)c1ccc[n+]([C@@H]2O[C@H](COP(=O)([O-])OP(=O)(O)OC[C@H]3O[C@@H](n4cnc5c(N)ncnc54)[C@H](OP(=O)(O)O)[C@@H]3O)[C@@H](O)[C@H]2O)c1 [NADP, nicotine adenine dinucleotide phosphate]
- Relative Activity (%) [1]: 0%

Compound: COc1cc(-c2ccc(-[n+]3nc(-c4ccccc4)nn3-c3ccc([N+](=O)[O-])cc3)c(OC)c2)ccc1-[n+]1nc(-c2ccccc2)nn1-c1ccc([N+](=O)[O-])cc1 [NTB, nitrotetrazolium blue]
- Relative Activity (%) [1]: 0%

Compound: [N-]=[N+]=[N-].[Na+] [NaN3]
- Relative Activity (%) [3, 7]: 95%

Compound: C[n+]1c2ccccc2nc2ccccc21 [PMS, phenazine methosulfate]
- Relative Activity (%) [1]: 100%
- Relative Amylase Activity [2]: 100%

Compound: CCCCCCCCCCCCOS(=O)(=O)O [SDS]
- Relative Activity (%) [4]: 3.8%

Compound: CCCCCCCCCCCCCCCC(=O)N(C)CC(=O)[O-].[Na+] [Sarcosinate PN]
- Relative Activity (%) [4]: 114%

Compound: C[C@H](CCC(=O)O)[C@H]1CC[C@H]2[C@@H]3[C@H](O)C[C@@H]4C[C@H](O)CC[C@]4(C)[C@H]3C[C@H](O)[C@]12C [Sodium cholate]
- Relative Activity (%) [4]: 86%

Compound: [Cl-].[Cl-].[Zn+2] [ZnCl2]
- Relative Activity (%) [3, 7]: 4.5%

Compound: CCO [ethanol]
- Relative Activity (%) [5]: 0%

Compound: O=C(CO)[C@@H](O)[C@H](O)[C@H](O)CO [fructose]
- Relative Activity (%) [5]: 31.4%

Compound: O=C[C@H](O)[C@@H](O)[C@@H](O)[C@H](O)CO [galactose]
- Relative Activity (%) [5]: 56.1%

Compound: O=C[C@H](O)[C@@H](O)[C@H](O)[C@H](O)CO [glucose]
- Relative Activity (%) [5]: 80.0%

Compound: OCC(O)CO [glycerol]
- Relative Activity (%) [5]: 0%

Compound: O[C@H]1[C@H](O)[C@@H](O)[C@H](O)[C@@H](O)[C@H]1O [inositol]
- Relative Activity (%) [5]: 0%

Compound: OC[C@H]1O[C@@H](O[C@H]2[C@H](O)[C@@H](O)C(O)O[C@@H]2CO)[C@H](O)[C@@H](O)[C@H]1O (stereo partly drawn) [lactose]
- Relative Activity (%) [5]: 58.2%

Compound: OC[C@H]1O[C@H](O[C@H]2[C@H](O)[C@@H](O)[C@@H](O[C@H]3[C@H](O)[C@@H](O)[C@@H](O[C@H]4[C@H](O)[C@@H](O)[C@@H](O[C@H]5[C@H](O)[C@@H](O)[C@@H](O[C@H]6[C@H](O)[C@@H](O)[C@@H](O[C@H]7[C@H](O)[C@@H](O)C(O)O[C@@H]7CO)O[C@@H]6CO)O[C@@H]5CO)O[C@@H]4CO)O[C@@H]3CO)O[C@@H]2CO)[C@H](O)[C@@H](O)[C@@H]1O (stereo partly drawn) [maltoheptaose]
- Relative Activity (%) [5]: 22.4%

Compound: OC[C@H]1O[C@H](O[C@H]2[C@H](O)[C@@H](O)[C@@H](O[C@H]3[C@H](O)[C@@H](O)[C@@H](O[C@H]4[C@H](O)[C@@H](O)[C@@H](O[C@H]5[C@H](O)[C@@H](O)[C@@H](O[C@H]6[C@H](O)[C@@H](O)C(O)O[C@@H]6CO)O[C@@H]5CO)O[C@@H]4CO)O[C@@H]3CO)O[C@@H]2CO)[C@H](O)[C@@H](O)[C@@H]1O (stereo partly drawn) [maltohexaose]
- Relative Activity (%) [5]: 28.6%

Compound: OC[C@H]1O[C@H](O[C@H]2[C@H](O)[C@@H](O)[C@@H](O[C@H]3[C@H](O)[C@@H](O)[C@@H](O[C@H]4[C@H](O)[C@@H](O)[C@@H](O[C@H]5[C@H](O)[C@@H](O)C(O)O[C@@H]5CO)O[C@@H]4CO)O[C@@H]3CO)O[C@@H]2CO)[C@H](O)[C@@H](O)[C@@H]1O (stereo partly drawn) [maltopentaose]
- Relative Activity (%) [5]: 36.4%

Compound: OC[C@H]1O[C@H](O[C@H]2[C@H](O)[C@@H](O)[C@H](O)O[C@@H]2CO)[C@H](O)[C@@H](O)[C@@H]1O [maltose]
- Km [6]: ~3800 µM
- Relative Activity (%) [5]: 100%

Compound: OC[C@H]1O[C@H](O[C@H]2[C@H](O)[C@@H](O)[C@@H](O[C@H]3[C@H](O)[C@@H](O)[C@@H](O[C@H]4[C@H](O)[C@@H](O)C(O)O[C@@H]4CO)O[C@@H]3CO)O[C@@H]2CO)[C@H](O)[C@@H](O)[C@@H]1O (stereo partly drawn) [maltotetraose]
- Relative Activity (%) [5]: 60.3%

Compound: OC[C@H]1O[C@H](O[C@H]2[C@H](O)[C@@H](O)[C@@H](O[C@H]3[C@H](O)[C@@H](O)C(O)O[C@@H]3CO)O[C@@H]2CO)[C@H](O)[C@@H](O)[C@@H]1O (stereo partly drawn) [maltotriose]
- Relative Activity (%) [5]: 77.4%

Compound: O=C[C@@H](O)[C@@H](O)[C@H](O)[C@H](O)CO [mannose]
- Relative Activity (%) [5]: 52.4%

Compound: C[N+](C)=c1ccc2nc3c(ccc4ccccc43)oc-2c1 [meldola blue, 9-dimethylaminobenzophenazoxonium chloride]
- Relative Activity (%) [1]: 20%
- Relative Amylase Activity [2]: 97.4%

Compound: CN(C)c1ccc2nc3ccc(=[N+](C)C)cc-3sc2c1 [methylene blue]
- Relative Activity (%) [1]: 0%

Compound: OC[C@H]1O[C@H](OC[C@H]2O[C@H](O[C@]3(CO)O[C@H](CO)[C@@H](O)[C@@H]3O)[C@H](O)[C@@H](O)[C@@H]2O)[C@H](O)[C@@H](O)[C@H]1O [raffinose]
- Relative Activity (%) [5]: 0%

Compound: OC[C@@H](O)[C@@H](O)[C@H](O)[C@@H](O)CO [sorbitol]
- Relative Activity (%) [5]: 0%

Compound: OC[C@H]1O[C@@](CO)(O[C@H]2O[C@H](CO)[C@@H](O)[C@H](O)[C@H]2O)[C@@H](O)[C@@H]1O [sucrose]
- Relative Activity (%) [5]: 0%

Compound: O=C[C@H](O)[C@@H](O)[C@H](O)CO [xylose]
- Relative Activity (%) [5]: 53.7%

Compound: OC[C@H]1O[C@H](O[C@H]2[C@H](O)[C@@H](O)[C@H](O)O[C@@H]2CO)[C@H](O)[C@@H](O)[C@@H]1O [β-maltose]
- Km [6]: 1360 µM

Compound: Sodium laurylbenzene sulfate
- Relative Activity (%) [4]: 0.2%

Compound: Span-85
- Relative Activity (%) [4]: 103%

Compound: Triton X-100
- Relative Activity (%) [4]: 115%

Compound: Tween-80
- Relative Activity (%) [4]: 104%

— patent US4683198A, “Novel maltose dehydrogenase, process for its production, and analytical method using the same” (Toyo Jozo Kabushiki Kaisha, priority 1983, dated 1987)
